Assays:
[1] = target: T1, triosephosphate isomerase (TbbTIM) (Trypanosoma brucei, UniProt P04789, I172A/L232A); experiment: activation of [[…]-13C]-glycolaldehyde turnover followed by 1H NMR, fit to give Kd; assay type: biochemical
[2] = target: T1, triosephosphate isomerase (TbbTIM); experiment: X-ray crystal structure; assay type: biochemical
[3] = system: O=C[C@H](O)COP(=O)(O)O; experiment: steady-state kinetics of isomerization; assay type: biochemical, Trypanosoma brucei; details: active site; pH 7.5; 25.0 °C

Molecule `O=[PH](O)O` [HPi, phosphite dianion] has a Kd [1] of 5.9 ± 0.5 mM.

Work on `O=C(O)COP(=O)(O)O` [PGA, 2-phosphoglycolate] yielded a Ki [2] of 0.12 mM.

“triosephosphate isomerase (TbbTIM) (Trypanosoma brucei brucei; I172A/L232A)” showed a kcat/Km [3] of 350000 M⁻¹ s⁻¹.

Source: PMC4934371 (Biochemistry, 2016)
